In patent US7048907B2, “Synthesis, compositions and methods for the measurement of the concentration of stable-isotope labeled compounds in life forms and life form excretory products” (BioPhysics Assay Laboratory, Inc., priority 2001, dated 2006):
Like-named read-outs stand apart in the source and are kept apart here. Values belong to the molecule of their own block, whether it stands above or below them.

Tests used:
[1] = demonstrated by properties of the marketed pharmaceutical product; cited from earlier work
[2] = Assay of chelate on carboxymethyl (CM) Sephadex column (chelate formation, charge); assay type: physicochemical; details: for % of total: DOTA chelates; for umol Gd: atomic absorption
Description: Preparation of carboxymethyl sephadex column. To two 10 ml plastic pipets cut off at the 3 ml mark and plugged with glass wool at the bottom add enough slurry to form a 2 ml volume of the CM sephadex. Wash the packed resin with 6 ml of 1 M Tris buffer pH 7.5, and 6 ml of 0.01M Tris buffer pH 7.5. […] Collect the eluants of fractions as follows. Fraction 1.3 ml of 0.01 M Tris buffer pH 7.5 and allow to drain into column. Fraction 2.1 ml of sample (gadolinium-DTPA or gadolinium chloride) and allow to drain into column. Apply 3 ml of 0.01 M Tris buffer pH 7.5 and allow to drain into column. Fraction 3.3 ml of 0.01M Tris buffer pH 7.5 and allow to drain into column. Dry all fractions at 70° C. for 76 hours, dissolve in 1 ml of 1 mM HCl and assay by atomic absorption.
(§1) Preparation of carboxymethyl Sephadex column. To two 10 ml plastic pipets which had been cut off at the 3 ml mark and plugged with glass wool at the bottom, enough slurry was added to form a 2 ml volume of the CM Sephadex. The packed resin was wash with 6 ml of 1 M Tris buffer pH 7.5, and 6 ml of 0.01M Tris buffer pH 7.5. […] Fractions were applied as follows. Fraction 1. Three ml of 0.01 M Tris buffer pH 7.5 and allow to drain into column. Fraction 2. One ml of sample (samarium-DTPA or samarium chloride) and allow to drain into column. Apply 3 ml of 0.01 M Tris buffer pH 7.5 and allow to drain into column. Fraction 3. Three ml of 0.01M Tris buffer pH 7.5 and allow to drain into column. Collect the eluant of fractions 1 through 3. Fraction 4. Column and contents.
as §1, with “were” for “had been”, “washed” for “wash”, “(lanthanum-DTPA” for “(samarium-DTPA”, “lanthanum” for “samarium”
as §1, with “were” for “had been”, “washed” for “wash”, “(Europium-DTPA” for “(samarium-DTPA”, “Europium” for “samarium”
Preparation of carboxymethyl sephadex column. To a 10 ml plastic pipet cut off at the 3 ml mark and plugged with glass wool at the bottom, add enough slurry to form a 2 ml volume of the CM sephadex. Wash the packed resin with 6 ml of 1 M Tris buffer pH 7.5, and 6 ml of 0.01M Tris buffer pH 7.5. […] Apply fractions as follows. Fraction 1. One ml of sample A and allow to drain into column.

[3] = male, New Zealand White, rabbit, in vivo
Description: One New Zealand White male rabbit (m=2 kg) was sedated with intramuscular ketanine (35 mg/kg) and xylazine (5 mg/kg). Both the right and left ear veins were catheterized. One line was used to inject Iohexol (Omnipaque®, Nycomed, Inc., Princeton, N.J.). The injected dose (ID) was 90 mg of iodine. […] For each blood sample, 100 μl of serum was placed in a clean sample vial. A metallic monitor was than added to each vial to account for potential neutron flux density variations during neutron activation analysis. Neutron activation was performed in a 2 megawatt reactor for 1 min and samples were counted within 30 minutes following activation. Counts were converted into disintegrations per minute and the measured iodine concentration for each sample was plotted as a function of time of sample withdrawal. The data was fit to a two compartment exponential model using the equation: Plasma concentration=Ae^−(at)+Be^−(bt). […] The GFR (ml/kg/min) was than calculated as follows: GFR=(ID/AUC)/m, where: ID=initial dose of iohexol, AUC=(A/a+B/b), and m=minutes.

[4] = in vivo; cited from earlier work
[5] = Fraction 1: 1 ml sample diluted 1:10 then 3 ml 0.01M Tris pH 7.5 (eluate)
[6] = Fraction 2: further 3 ml 0.01M Tris pH 7.5

- % eluted from the CM-Sephadex column [2]: 100%
- % of total [2, 5]: 100 % of total
- % of total [2, 6]: 0 % of total
- umol Gd [2, 5]: 0.1 µmol
- umol Gd [2, 6]: 0 µmol
- time within which the chelate forms ([2]; room temperature, Tris pH 7.5): ≤ 5 min
SMILES: O=C([O-])CN1CCN(CC(=O)[O-])CCN(CC(=O)O)CCN(CC(=O)[O-])CC1.[Gd+3] [Gd-DOTA, Gd-(1,4,7,10-tetraazacyclododecane-1,4,7,10-tetraacetic acid), reference compound]
- stability to autoclaving [1]: stable to autoclaving

- GFR [3]: 4.8 mL/min/kg
- serum concentration ([3]; 5 min): 124.4 µg/mL
- serum iodine signal ([3]; 5 min): 5166.1 dpm/ul
- serum concentration ([3]; 10 min): 109.4 µg/mL
- serum iodine signal ([3]; 10 min): 4541.7 dpm/ul
- serum concentration ([3]; 15 min): 86.6 µg/mL
- serum iodine signal ([3]; 15 min): 3595.7 dpm/ul
- serum concentration ([3]; 20 min): 88.85 µg/mL
- serum iodine signal ([3]; 20 min): 3689.4 dpm/ul
- serum concentration ([3]; 30 min): 67.69 µg/mL
- serum iodine signal ([3]; 30 min): 2810.5 dpm/ul
- serum concentration ([3]; 45 min): 47.02 µg/mL
- serum iodine signal ([3]; 45 min): 1952.3 dpm/ul
- serum concentration ([3]; 60 min): 48.94 µg/mL
- serum iodine signal ([3]; 60 min): 2032.3 dpm/ul
- serum concentration ([3]; 96 min): 31.74 µg/mL
- serum iodine signal ([3]; 96 min): 1317.8 dpm/ul
- serum concentration ([3]; 120 min): 23.65 µg/mL
- serum iodine signal ([3]; 120 min): 982.0 dpm/ul
SMILES: CC(=O)N(CC(O)CO)c1c(I)c(C(=O)NCC(O)CO)c(I)c(C(=O)NCC(O)CO)c1I (stereo not drawn) [Iohexol]

SMILES: O=C([O-])C(NCCNC(C(=O)[O-])c1ccccc1[O-])c1ccccc1[O-].[Fe+3] (stereo not drawn) [FE-EHPG]
- uptake into liver [4]: 6 % of an administered dose
